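Test compounds were applied to cells in 96-well plates for 48 hours at 5 doses. GI50 is the concentration that inhibits growth by half.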 Active and inactive are the calls of the source. No stated cut-off is given here; in the data, active = GI50 up to about 1.1 µM and inactive = higher.
Legend:
Assay in all cases: NCI-60 cell line screen, 48 h
786-0 = test system: 786-0
BT-549 = test system: BT-549
DU-145 = test system: DU-145
HCT-116 = test system: HCT-116
HOP-62 = test system: HOP-62
K562 = test system: K562
LOX IMVI = test system: LOX IMVI
M14 = test system: M14
MCF7 = test system: MCF7
MDA-MB-435 = test system: MDA-MB-435
MDA-N = test system: MDA-N
MOLT-4 = test system: MOLT-4
NCI-H460 = test system: NCI-H460
NCI-H522 = test system: NCI-H522
OVCAR-3 = test system: OVCAR-3
SK-OV-3 = test system: SK-OV-3
SN12C = test system: SN12C
SW-620 = test system: SW-620
T47D = test system: T47D
UACC-62 = test system: UACC-62

Measured: GI50

CCCCNc1nc2ccccc2c2c1ncn2CC(C)C
inactive: 786-0 > 100 µM | BT-549 > 100 µM | DU-145 > 100 µM | HCT-116 > 100 µM | HOP-62 > 100 µM | K562 > 100 µM | LOX IMVI > 100 µM | M14 > 100 µM | MCF7 > 100 µM | MDA-MB-435 > 100 µM | MDA-N > 100 µM | MOLT-4 > 100 µM | NCI-H460 > 100 µM | NCI-H522 > 100 µM | OVCAR-3 > 100 µM | SK-OV-3 > 100 µM | SN12C > 100 µM | SW-620 > 100 µM | T47D > 100 µM | UACC-62 > 100 µM

C[C@]1(O)CC(=O)c2c(c(-c3ccc4cc5c(c(O)c4c3O)C(=O)C[C@@](C)(O)C5)c3cccc(O)c3c2O)C1
inactive: 786-0 5.37 µM | BT-549 5.89 µM | DU-145 5.53 µM | HCT-116 3.48 µM | HOP-62 3.48 µM | K562 11.9 µM | LOX IMVI 6.37 µM | M14 5.56 µM | MCF7 5.53 µM | MDA-MB-435 7.05 µM | MDA-N 4.56 µM | MOLT-4 9.44 µM | NCI-H460 3.24 µM | NCI-H522 4.88 µM | OVCAR-3 3.71 µM | SK-OV-3 10.3 µM | SN12C 6.22 µM | SW-620 6 µM | T47D 2.86 µM | UACC-62 5.64 µM

Clc1ccc(OCC2NC3C=CC32)cn1 (stereo not given)
inactive: 786-0 > 100 µM | BT-549 > 100 µM | DU-145 > 100 µM | HCT-116 > 100 µM | HOP-62 > 100 µM | K562 59.3 µM | LOX IMVI > 100 µM | M14 > 100 µM | MCF7 55 µM | MDA-MB-435 > 100 µM | MDA-N > 100 µM | MOLT-4 56 µM | NCI-H460 > 100 µM | NCI-H522 > 100 µM | OVCAR-3 > 100 µM | SK-OV-3 > 100 µM | SN12C > 100 µM | SW-620 > 100 µM | T47D > 100 µM | UACC-62 > 100 µM

O=C(Oc1ccccn1)c1cc2cc(CCl)ccc2oc1=O
inactive: 786-0 19.5 µM | BT-549 22.3 µM | DU-145 42.8 µM | HCT-116 25.8 µM | HOP-62 23.7 µM | K562 32.7 µM | LOX IMVI 33.3 µM | M14 > 100 µM | MCF7 38.5 µM | MDA-MB-435 51.3 µM | MDA-N 43.5 µM | MOLT-4 31.2 µM | NCI-H460 43.7 µM | NCI-H522 15.2 µM | OVCAR-3 19.4 µM | SK-OV-3 > 100 µM | SN12C 25.2 µM | SW-620 30.8 µM | T47D 32.7 µM | UACC-62 27.2 µM
